Measured values as given in paper PMC7324617, “Selection and identification of a novel bone-targeting peptide for biomedical imaging of bone” (Scientific Reports, 2020).
“Also recorded” adds a separate entry of the source. Where no end group is shown, it is not given here.

Experiments:
Saos-2 cells = experiment: Cytotoxicity assay (WST-1) in Saos-2 cells; type: cell-based; details: 1 nM to 100 μM, 24 h, 48 h and 72 h, WST-1, triplicates
Method: The biocompatibility of HA-pep3 is important for assessing the feasibility of its in vivo application. Therefore, we performed HA-pep3 cytotoxicity assessment in osteoblastic Saos-2 osteogenic cells for 24 h, 48 h and 72 h (Fig. 6a and Figure S3). The cell viability was measured using various concentrations of HA-pep3 ranging from 1 nM to 100 μM. […] Next, we analyzed HA-pep3 in vivo application feasibility. We used Cy5.5 dye with near-infrared wavelength for in vivo imaging, to minimize tissue adsorption. After Cy5.5 dye labeling, scrambled peptide and HA-pep3 were injected into the tail vein of nude mice. […] The fluorescence intensity in bone was about 3.32 folds higher for Cy5.5-HA-pep3 than for a scrambled sequence (Fig. 6d).
Saos-2 osteosarcoma osteogenic primary cell line was purchased from the Korean cell line bank. Cells were cultured in […] medium with L-glutamine (300 mg/L), 25 mM HEPES, and 25 mM NaHCO3 supplemented with 10% heat-inactivated fetal bovine serum (FBS), 100 U/mL penicillin, and 100 μg/mL streptomycin. The cell lines were cultured at 37 °C and up to 5% CO2 in humidified atmosphere. All reagents and cell culture media were purchased from the WELGENE Company, South Korea. HA-pep3 cytotoxicity was examined using WST-1 assay. […] Finally, the absorbance was measured at 450 nm using a microplate spectrophotometer (Tecan Infinite 200). […]

[1] = Blood analysis for in vivo clearance; design: species or system mice; details: blood samples 10 μL at 1, 3, 6 and 12 h after intravenous injection of Cy5.5-HA pep3; fluorescence (IVIS)
Source text: We used X-ray function of in vivo imaging machine, IVIS Lumina XRMS and performed X-ray imaging of the mice with Cy5.5-HA pep3. With x-ray images, we could observe the high fluorescence intensity at spine (Figure S5a). In additions, we compared its biodistribution in vivo to our Cy5.5-HA pep3 and E7 positive peptide after intravenous injection. […] In addition, we performed blood analysis to determine clearance of our peptide in vivo (Figure S6).
All animal studies were approved by the Institutional Review Board of the Catholic University of Korea (approval No. CUMC-2019-0003-01). BALB/c nude mice (4 weeks old, OrientBio, Seongnam city, Korea) and wild type C3H/HeN mice were used for in vivo imaging. Cy5.5-scramble peptide or Cy5.5-HAp peptide (5 mg/kg of peptide in 100 µL physiological saline, n = 3) were administered to the mice by a tail vein injection. […] All images were analyzed with Living Image 4.5 software (PerkinElmer Inc., Massachusetts, USA). […] The fluorescence intensity of […] in samples was measured by IVIS Lumina XRMS.
Figure S6. […] (a) Time-dependent fluorescence images of blood sample obtained from mice tail at 1, 2, 3, 6 and 12h after intravenous injection of Cy5.5-HA pep3. (b) Average fluorescence intensity graph of the blood samples in (a).

For KNFQSRSH [HA-pep3], the “cytotoxicity (cell viability)” value (Saos-2 cells) was “no cytotoxicity; also recorded: did not show any cytotoxicity up to 100 μM” and the clearance from blood [1] was “disappeared in blood after 12 h”.
